“Also recorded” adds a separate entry of the source. Where two headings read alike, the source gives them in different places.
Experiments:
[1] = biological target: T1, NlugCSP8 (Nilaparvata lugens, UniProt B7TVH4); experiment: Fluorescence competitive ligand binding assay with 1-NPN probe
Protocol: The recombinant pET-30a/CSP8 expression plasmid was transformed into Escherichia coli BL21 (DE3) competent cells. After DNA sequencing, a single positive clone was grown in 10 mL Luria-Bertani (LB) medium containing kanamycin (50 μg/mL) with shaking overnight at 220 rpm and 37°C. The culture was diluted to 2 L LB medium (supplemented with 50 μg/mL kanamycin) and grown at 37°C with shaking at 220 rpm until the culture reached the optical density value of ~0.6–0.7 at 600 nm. The recombinant protein expression was induced by the addition of 2 mM IPTG (Isopropyl β-D-1-thiogalactopyranoside), followed by culturing for 4 h at 37°C. The bacterial cells were harvested by centrifugation (10,000 rpm, 10 min) and sonicated. The expressed protein presented in the supernatant as a soluble form. Then, NlugCSP8 purification was performed using a Ni-ion affinity chromatography column (GE Healthcare, Uppsala, Sweden). His-tag was removed from the recombinant protein with the addition of recombinant bovine enterokinase (EK) in the eluted fractions of protein, followed by 16 h incubation at 25°C. After running the digested protein back through the Ni-ion affinity chromatography column, the tag-free protein was obtained in the flow through fraction. Protein expression and purification steps were assessed by 15% SDS-PAGE (sodium dodecyl sulfate-polyacrylamide gel electrophoresis). Finally, purified protein was dialyzed in Tris buffer (pH 5.0) and (pH 7.4). The concentration of purified protein was determined prior to perform ligand-binding specificities of NlugCSP8 with 25 selected ligands at pH 5.0 and pH 7.4.
Fluorescence-based ligand binding assays were performed based on the method described by Sun X. et al. ([2016]). According to previous studies about the rice-specific volatiles (Fujii et al., [2010]; He et al., [2011]; Yang et al., [2014]; Zhang et al., [2014]), 25 potential ligands were selected for the fluorescence binding assays (Table 1). All the ligands used in this study were purchased from Sigma-Aldrich (St. Louis, MO, USA) and stored according to manufacturer instructions. The ligand binding affinity for various ligands was determined by using the 1-NPN (N-phenyl-1-naphthylamine) as a fluorescent probe. RF-5301PC fluorimeter (Shimadzu, Kyoto, Japan) was used for fluorescence binding assay at 25°C with 10 nm slit width and 1 cm light path quartz cuvette for emission and excitation. The 1-NPN/NlugCSP8 mixture was excited using an excitation wavelength of 337 nm, and the fluorescence intensity was recorded between 350 and 600 nm following an established protocol (Ban et al., [2002]). The 1-NPN and all the potential ligands were prepared in spectrophotometric-grade methanol. The binding constant for 1-NPN was measured by adding aliquots of 1 mM 1-NPN into a 2 μM solution of protein in 30 mM Tris-HCL at room temperature. […] For each test, fluorescence measurement was conducted after the reaction was incubated for 2 min at room temperature (Liu et al., [2015]). Three independent measurements were used to obtain the binding data. 1-NPN/NlugCSP8 dissociation constants (Kd) were calculated from Scatchard plots of the binding data using the Prism 5 software (GraphPad, La Jolla, CA, USA). The curves were linearized using the Scatchard plot program (Campanacci et al., [2001]). The dissociation constants of the competitors were determined by using the corresponding IC50-values according to the equation Ki = [IC50]/ (1+[1-NPN]/K1−NPN), where IC50 represents the concentration of ligand which decreases the fluorescence intensity of [1-NPN], [1-NPN] is the free concentration of 1-NPN and K1−NPN is the dissociation constant of the NlugCSP8/1-NPN complex (Ban et al., [2003]; Tian and Zhang, [2016]). For the reader's convenience, data were recalculated as 1/ki × 1,000, for which a larger value designates a stronger ligand binding affinity.

[2] = test system: Nilaparvata lugens; experiment: H-tube olfactometer behavioral assay; assay type: in vivo; conditions: macropterous adults, vs liquid paraffin
Protocol: BPH behavior responses to different ligands were tested in an H-tube olfactometer similar to which previously used by Yi et al. ([2018]) in our laboratory. The H-tube olfactometer mainly consists of two glass tubes (arms) with gauze at its top end. These two glass tubes were connected by another tube (5 cm in diameter, 20 cm long with a hole of 1 cm in the middle for releasing BPH). Twenty macropterous (10 from each sex) BPH adults were introduced into the H-tube and the number of BPH was counted at 30 min after their introduction. Liquid paraffin was used as in control arm. Rubber septa were absorbed in the liquid paraffin and solutions of the odor molecules to be tested (liquid paraffin+ different concentration of tested volatile) and placed at room temperature. After 24 h, one rubber septa from each control and tested volatile was put in each glass arm. After one replication, rubber septa were changed and three treatments (1, 10, and 100 μl/mL) of tested volatiles against macropterous adults were tested in eight replications. After four replications, the H-tube olfactometer was washed with 75% alcohol and the liquid paraffin rubber septa were placed in another arm to complete the other four replications. The impact of NlugCSP8-dsRNA on the preference of N. lugens was also tested by H-tube olfactometer assays. Corresponding control experiments without dsRNA injection were performed to investigate whether the preference of N. lugens was affected by volatile concentration change. Three treatments of BPH (NlugCSP8-dsRNA injected, GFP-dsRNA injected, and without injection) were tested in four replications. As in case of dsRNA injected insects, the concentration of volatiles that have highly significant attractive results on non-injected insects used for dsCSP8 and dsGFP injected insects. In order to evaluate the best RNAi effect, mRNA levels of NlugCSP8-dsRNA injected insects were determined and compared with the GFP-dsRNA-injected and non-injected insects, prior to H-tube olfactometer bioassay. Based on the findings of previous step, we re-inject the BPH and the individuals with the best post-injection RNAi effect after 7-days, were used in the H-tube olfactometer bioassay. Bioassays were performed under controlled conditions at 26 ± 2°C and 75 ± 5% relative humidity.

[3] = test system: NlugCSP7; design: method as in Yang et al., 2014; conditions: ref Yang et al., 2014; cited from earlier work
[4] = test system: BPH; design: method as in Obata et al., 1983; conditions: volatile isolated from rice plants; ref Obata et al., 1983; cited from earlier work
[5] = test system: Nilaparvata lugens; experiment: H-tube olfactometer assay after RNAi (dsRNA-injected BPH); assay type: in vivo; conditions: 10 μl/mL (nerolidol), 100 μl/mL (hexanal); compared with controls
Protocol: BPH behavior responses to different ligands were tested in an H-tube olfactometer similar to which previously used by Yi et al. ([2018]) in our laboratory. The H-tube olfactometer mainly consists of two glass tubes (arms) with gauze at its top end. These two glass tubes were connected by another tube (5 cm in diameter, 20 cm long with a hole of 1 cm in the middle for releasing BPH). Twenty macropterous (10 from each sex) BPH adults were introduced into the H-tube and the number of BPH was counted at 30 min after their introduction. Liquid paraffin was used as in control arm. Rubber septa were absorbed in the liquid paraffin and solutions of the odor molecules to be tested (liquid paraffin+ different concentration of tested volatile) and placed at room temperature. After 24 h, one rubber septa from each control and tested volatile was put in each glass arm. After one replication, rubber septa were changed and three treatments (1, 10, and 100 μl/mL) of tested volatiles against macropterous adults were tested in eight replications. […] In order to evaluate the best RNAi effect, mRNA levels of NlugCSP8-dsRNA injected insects were determined and compared with the GFP-dsRNA-injected and non-injected insects, prior to H-tube olfactometer bioassay. […]

[6] = test system: BPH; design: method as in Hernandez et al., 1989; Youn, 2002; conditions: BPH and some other Hemiptera; ref Hernandez et al., 1989; Youn, 2002; cited from earlier work
[7] = biological target: T1, NlugCSP8; experiment: Titration of NlugCSP8 with 1-NPN (Scatchard plot); assay type: binding; conditions: read-out: dissociation constant
Protocol: Fluorescence-based ligand binding assays were performed based on the method described by Sun X. et al. ([2016]). According to previous studies about the rice-specific volatiles (Fujii et al., [2010]; He et al., [2011]; Yang et al., [2014]; Zhang et al., [2014]), 25 potential ligands were selected for the fluorescence binding assays (Table 1). All the ligands used in this study were purchased from Sigma-Aldrich (St. Louis, MO, USA) and stored according to manufacturer instructions. The ligand binding affinity for various ligands was determined by using the 1-NPN (N-phenyl-1-naphthylamine) as a fluorescent probe. RF-5301PC fluorimeter (Shimadzu, Kyoto, Japan) was used for fluorescence binding assay at 25°C with 10 nm slit width and 1 cm light path quartz cuvette for emission and excitation. The 1-NPN/NlugCSP8 mixture was excited using an excitation wavelength of 337 nm, and the fluorescence intensity was recorded between 350 and 600 nm following an established protocol (Ban et al., [2002]). The 1-NPN and all the potential ligands were prepared in spectrophotometric-grade methanol. The binding constant for 1-NPN was measured by adding aliquots of 1 mM 1-NPN into a 2 μM solution of protein in 30 mM Tris-HCL at room temperature. […] For each test, fluorescence measurement was conducted after the reaction was incubated for 2 min at room temperature (Liu et al., [2015]). […]

[8] = Ki, pH 5.0, calculated from IC50
[9] = Ki, pH 7.4, calculated from IC50
[10] = pH 5.0, calculated from IC50, read-out: Ki
[11] = pH 7.4, calculated from IC50, read-out: Ki

T1 sequence (B7TVH4 entry or part of it): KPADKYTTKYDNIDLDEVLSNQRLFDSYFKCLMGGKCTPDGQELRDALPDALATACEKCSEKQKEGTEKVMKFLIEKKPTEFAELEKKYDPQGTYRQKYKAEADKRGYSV

Row | Compound | IC50 ([1]; IC50, pH 5.0) [µM] | IC50 ([1]; IC50, pH 7.4) [µM] | Ki [1, 8] [µM] | Ki [1, 9] [µM] | Ki [1, 10] [µM] | IC50 ([1]; pH 5.0, read-out: IC50) [µM] | Ki [1, 11] [µM] | IC50 ([1]; pH 7.4, read-out: IC50) [µM] | further results
1 | CCC/C=C/C=O [Trans-2-hexenal] | 11.6 | 28 | < 10 | 23.3 | – | – | – | – | behavioral response of BPH ([2]; concentration not given): significant aversion
2 | CCCCCCCCCCCC=O [Dodecyl aldehyde] | – | – | – | – | 28.4 | 32.6 | 12.2 | 14.6 | –
3 | Farnesene | – | – | – | – | 173 | 199 | 44.8 | 53.8 | Ki ([1]; pH 5.0, calculated from IC50, listed as farnesene, read-out: Ki): > 40 µM; Ki ([1]; pH 7.4, calculated from IC50, listed as farnesene, read-out: Ki): > 40 µM
4 | CCCCCCCCCCCC(C)=O [2-Tridecanone] | – | – | – | – | 10.4 | 12 | 12.5 | 15 | binding affinity with NlugCSP7 [3]: relatively weak binding affinity; attraction of BPH [4]: able to attract BPH
5 | C=CC(C)(O)CCC=C(C)CCC=C(C)C (mixture of isomers) [Nerolidol] | – | – | – | – | 8.38 | 9.61 | 10 | 12 | behavioral response of BPH ([2]; 10 μl/mL): significant attraction; behavior response of dsCSP8-injected (RNAi) BPH to attractant [5]: attraction activity was completely lost and lost; binding affinity with NlugCSP7 [3]: weak affinities
6 | CCCCCC(C)O (centres unmarked) [2-Heptanol] | – | – | – | – | 9.77 | 11.2 | 13.8 | 16.5 | behavioral response of BPH ([2]; concentration not given): significant aversion
7 | (–)-Limoonene | – | – | – | – | 17.8 | 20.4 | 20.4 | 24.4 | –
8 | CC/C=C\CCO [Cis-3-hexen-1-ol] | 38 | 27.5 | 33.1 | 22.9 | – | – | – | – | –
9 | CCCCCC=O [Hexanal] | 11 | 17.3 | 9.56 | 14.4 | – | – | – | – | behavioral response of BPH ([2]; 1 μl/mL): repellency; behavioral response of BPH ([2]; 10 μl/mL): attraction became weakened; behavioral response of BPH ([2]; 100 μl/mL): strongly behaved as attractant; behavior response of dsCSP8-injected (RNAi) BPH to attractant [5]: reduced significantly; also recorded: significantly inhibited; binding affinity with NlugCSP7 [3]: weak affinities; Electroantennogram response [6]: high Electroantennogram response
10 | CCC/C=C/CO [Trans-2-hexen-1-ol] | 18.2 | 25.9 | 15.9 | 21.5 | – | – | – | – | –
11 | CCCCCCCCCCCCCCCCCCCC [Eicosane] | – | – | – | – | 12.2 | 14 | 12.4 | 14.9 | –
12 | C=CC(O)CCCCC (centres unmarked) [1-Octen-3-ol] | – | – | – | – | 19.2 | 22.1 | 19.4 | 23.3 | –
13 | C=CC(C)(O)CCC=C(C)C (centres unmarked) [Linalool] | 36.9 | 23.4 | 32.2 | 19.5 | – | – | – | – | –
14 | COC(=O)c1ccccc1 [Methyl benzoate] | 17.8 | 23.6 | 15.5 | 19.6 | – | – | – | – | –
15 | CCCCCCCCCCCCCCCC [Hexadecane] | – | – | – | – | 23.8 | 27.3 | 15.9 | 19 | –
16 | c1ccc(Nc2cccc3ccccc23)cc1 [1-NPN, N-phenyl-1-naphthylamine] | – | – | – | – | – | – | – | – | Kd ([7]; pH 5.0): 6.8 µM; Kd ([7]; pH 7.4): 4.99 µM
17 | Cc1ccc(C(C)C)cc1 [4-Isopropyl to luene] | 22.7 | 20.3 | 19.8 | 16.9 | – | – | – | – | –
18 | CCCCCCCCCCCCCCCCCCC [Nonadecane] | – | – | – | – | 24.6 | 28.3 | 14.3 | 17.2 | –
19 | CC1=CCC(=C(C)C)CC1 [Terpinolene] | 31.2 | 25.6 | 27.2 | 21.3 | – | – | – | – | –
20 | C=C(C)[C@H]1CC=C(C)CC1 [R-(+)-limonene] | – | – | – | – | 12.6 | 14.4 | 13.2 | 15.9 | –
21 | CC1=CCC2C(C1)C2(C)C (single isomer, unassigned; (+)) [(+)-3-Carene] | – | – | – | – | 34.8 | 39.9 | 27 | 32.4 | –
22 | CC1=CC[C@](O)(C(C)C)CC1 [(–)-Terpinen-4-ol] | 11.4 | 19 | 9.97 | 15.8 | – | – | – | – | behavioral response of BPH ([2]; 1 μl/mL): attractive; behavioral response of BPH ([2]; 10 μl/mL): attractive
23 | CCC(O)CC [3-Pentanol] | – | – | – | – | 27.4 | 31.4 | 19.6 | 23.5 | –
24 | CC1=CC=C(C(C)C)CC1 [α-Terpinene] | 16.4 | 16.6 | 14.3 | 13.8 | – | – | – | – | –
25 | OC1CCCCC1 [Cyclohexanol] | 95.5 | 51.2 | 83.3 | 42.7 | – | – | – | – | –
26 | CC1=CC[C@@H](C(C)(C)O)CC1 [α-Terpineol] | 15.5 | 24.1 | 13.5 | 20.1 | – | – | – | – | –
